These results are taken from ChEMBL document CHEMBL1201862, “PubChem BioAssay data set” (2004).

Where “and” joins values, the source holds several entries; their conditions need not be identical. Equal entries are not always repeated. Calls of active or inactive are those of the source.

In experiment [1] the target is T1, Dual specificity protein phosphatase 3 (Homo sapiens, UniProt P51452). The experiment can be described thus: SAR VHR1 Fluorescent Assay for In Vitro dose response studies Set 2. [Related pubchem assays (depositor defined):AID1654, AID1661, AID1878]. Type of experiment: functional.
T1 sequence (P51452 whole entry): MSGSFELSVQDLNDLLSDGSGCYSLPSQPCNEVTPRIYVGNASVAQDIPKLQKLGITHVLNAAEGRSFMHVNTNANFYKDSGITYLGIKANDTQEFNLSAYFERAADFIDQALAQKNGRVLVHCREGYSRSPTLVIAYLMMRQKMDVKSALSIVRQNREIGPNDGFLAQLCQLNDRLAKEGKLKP
Experiment [2] addresses T1, Dual specificity protein phosphatase 3. The experiment in a line: VHR1 phosphatase inhibitors, biochemical (AID 1878).
The target is the same in experiment [3]. The experiment in a line: SAR VHR1 absorbance Assay for In Vitro dose response studies. [Related pubchem assays (depositor defined):AID1654, AID1661, AID1878, AID1992, AID2004].
The target of experiment [4] is Glucose-6-phosphate 1-dehydrogenase (Homo sapiens, UniProt P11413). The experiment can be described thus: inhibition of Homo sapiens G6PD, dose series – biochemical, fluorescence, selectivity assay for P. falciparum G6PD inhibitor project, dose response (AID 504792). In kind it is functional.
Glucose-6-phosphate 1-dehydrogenase, sequence (P11413 whole entry): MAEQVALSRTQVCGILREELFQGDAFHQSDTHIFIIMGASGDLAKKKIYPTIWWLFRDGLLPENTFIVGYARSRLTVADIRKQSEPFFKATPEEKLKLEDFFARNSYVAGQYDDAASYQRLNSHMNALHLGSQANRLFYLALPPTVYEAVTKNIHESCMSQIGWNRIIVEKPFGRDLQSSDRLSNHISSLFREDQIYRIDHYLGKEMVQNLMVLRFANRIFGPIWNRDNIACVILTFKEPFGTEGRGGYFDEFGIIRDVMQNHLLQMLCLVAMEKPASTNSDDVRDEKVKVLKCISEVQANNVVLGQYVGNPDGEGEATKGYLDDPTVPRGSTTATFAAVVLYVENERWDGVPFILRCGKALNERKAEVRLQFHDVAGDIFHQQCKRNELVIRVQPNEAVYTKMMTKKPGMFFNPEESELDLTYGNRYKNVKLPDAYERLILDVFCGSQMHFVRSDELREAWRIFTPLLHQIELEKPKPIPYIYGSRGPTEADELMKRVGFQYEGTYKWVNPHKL
For experiment [5], the target named is T2, Tyrosine-protein phosphatase non-receptor type 7 (Homo sapiens, UniProt P35236).
T2 sequence (P35236 whole entry): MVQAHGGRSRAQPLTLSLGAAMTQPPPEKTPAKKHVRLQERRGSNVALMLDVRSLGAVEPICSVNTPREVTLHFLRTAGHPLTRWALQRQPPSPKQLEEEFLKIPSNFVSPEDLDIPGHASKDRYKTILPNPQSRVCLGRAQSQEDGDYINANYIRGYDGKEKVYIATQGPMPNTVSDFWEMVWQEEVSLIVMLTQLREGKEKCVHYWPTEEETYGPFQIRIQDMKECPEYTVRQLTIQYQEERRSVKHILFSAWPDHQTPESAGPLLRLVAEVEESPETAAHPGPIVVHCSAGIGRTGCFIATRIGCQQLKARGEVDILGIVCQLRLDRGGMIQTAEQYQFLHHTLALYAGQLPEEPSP
The experiment can be described thus: inhibition of hematopoietic tyrosine phosphatase HePTP – biochemical, set 2, SAR follow-up (AID 449736). In kind it is functional.

Experiment [6] deals with T1, Dual specificity protein phosphatase 3. The experiment can be described thus: VHR1 phosphatase inhibitors, primary screen, biochemical, absorbance, uHTS (AID 1654).
Experiment [7] addresses T3, Rac GTPase-activating protein 1 (Homo sapiens, UniProt Q9H0H5).
T3 sequence (Q9H0H5 whole entry): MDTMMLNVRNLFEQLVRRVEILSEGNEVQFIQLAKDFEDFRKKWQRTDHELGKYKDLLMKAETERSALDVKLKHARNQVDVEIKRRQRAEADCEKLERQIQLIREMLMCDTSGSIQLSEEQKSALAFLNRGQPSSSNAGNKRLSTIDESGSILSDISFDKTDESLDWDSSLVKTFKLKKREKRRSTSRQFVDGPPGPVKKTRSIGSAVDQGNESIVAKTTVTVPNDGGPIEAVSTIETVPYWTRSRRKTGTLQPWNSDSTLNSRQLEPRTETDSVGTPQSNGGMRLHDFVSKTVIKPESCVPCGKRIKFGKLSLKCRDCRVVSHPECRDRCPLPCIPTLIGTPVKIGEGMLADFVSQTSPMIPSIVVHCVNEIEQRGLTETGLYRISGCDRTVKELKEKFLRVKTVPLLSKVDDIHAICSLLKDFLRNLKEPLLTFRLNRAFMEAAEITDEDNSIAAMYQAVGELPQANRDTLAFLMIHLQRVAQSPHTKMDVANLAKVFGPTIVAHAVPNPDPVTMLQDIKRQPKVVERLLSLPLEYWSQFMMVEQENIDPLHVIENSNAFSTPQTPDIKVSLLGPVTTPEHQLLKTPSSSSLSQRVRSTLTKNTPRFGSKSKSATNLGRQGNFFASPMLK
The experiment can be described thus: blockers of MgcRacGAP-driven Rac1 GTP hydrolysis – biochemical, ADP Hunter fluorescence, primary and confirmatory, confirmation (AID 624330). In kind it is functional.

For experiment [8], the target named is DNA dC->dU-editing enzyme APOBEC-3G (Homo sapiens, UniProt Q9HC16). The experiment in a line: Dose Response confirmation of small molecule APOBEC3G DNA Deaminase Inhibitors via a fluorescence-based single-stranded DNA deaminase assay. [Related pubchem assays (depositor defined):AID493012, AID493028]. In kind it is functional.
DNA dC->dU-editing enzyme APOBEC-3G, sequence (Q9HC16 whole entry): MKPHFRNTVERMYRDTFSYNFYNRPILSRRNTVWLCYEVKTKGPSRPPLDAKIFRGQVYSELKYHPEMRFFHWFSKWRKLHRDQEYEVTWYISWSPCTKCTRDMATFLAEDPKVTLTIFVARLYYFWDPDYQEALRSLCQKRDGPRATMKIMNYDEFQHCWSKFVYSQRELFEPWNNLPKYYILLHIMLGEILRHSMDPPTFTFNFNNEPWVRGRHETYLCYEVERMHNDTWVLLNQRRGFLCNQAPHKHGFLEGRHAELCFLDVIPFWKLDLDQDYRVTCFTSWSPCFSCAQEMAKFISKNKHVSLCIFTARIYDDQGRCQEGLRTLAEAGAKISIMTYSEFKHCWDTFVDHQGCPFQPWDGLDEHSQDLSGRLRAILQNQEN
In experiment [9] the target is T4, Dual specificity protein phosphatase 6 (Rattus norvegicus, UniProt Q64346).
T4 sequence (Q64346 whole entry): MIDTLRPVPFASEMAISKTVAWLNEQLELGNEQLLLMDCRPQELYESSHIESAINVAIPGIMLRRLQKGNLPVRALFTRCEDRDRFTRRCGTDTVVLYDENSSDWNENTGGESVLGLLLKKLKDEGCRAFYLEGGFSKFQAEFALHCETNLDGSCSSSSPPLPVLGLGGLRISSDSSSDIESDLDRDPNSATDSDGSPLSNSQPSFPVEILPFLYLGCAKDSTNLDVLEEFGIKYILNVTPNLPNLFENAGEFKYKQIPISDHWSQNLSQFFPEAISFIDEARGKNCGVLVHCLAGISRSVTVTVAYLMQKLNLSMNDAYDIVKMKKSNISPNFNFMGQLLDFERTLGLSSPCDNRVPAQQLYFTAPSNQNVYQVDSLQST
The experiment can be described thus: inhibition of rat DUSP6 enzyme activity – biochemical, in vitro, primary screen (AID 425).

In experiment [10] the target is T1, Dual specificity protein phosphatase 3. The experiment can be described thus: SAR VHR1 Fluorescent Assay for In Vitro dose response studies. [Related pubchem assays (depositor defined):AID1654, AID1661, AID1878, AID1992, AID2004, AID2070, AID2085]. In kind it is functional.
Experiment [11] has as its target T4, Dual specificity protein phosphatase 6. The experiment can be described thus: SAR analysis of inhibitors of MKP-3 - Set 2. [Related pubchem assays (depositor defined):AID1055, AID1661, AID425, AID553, AID566]. Type of experiment: functional.
Experiment [12] has as its target DNA dC->dU-editing enzyme APOBEC-3A (Homo sapiens, UniProt P31941). The experiment can be described thus: A3A deaminase inhibition for selectivity – biochemical, dose response (AID 504722). Type of experiment: functional.
In experiment [13] the target is T2, Tyrosine-protein phosphatase non-receptor type 7. The experiment in a line: SAR analysis of chemical inhibitors of HePTP using a Fluorescent assay - Set 2. [Related pubchem assays (depositor defined):AID1059, AID1077, AID1661, AID2085, AID521]. In kind it is functional.
In experiment [14] the target is T4, Dual specificity protein phosphatase 6. Type of experiment: functional.
Experiment [15] addresses T2, Tyrosine-protein phosphatase non-receptor type 7. The experiment can be described thus: redox-active compounds inhibiting HePTP phosphatase – biochemical, fluorescence, mechanism study (AID 2068). In kind it is functional.
The nature of experiment [16]: HEK-293T viability loss, compound-treated – cell-based, uHTS hits, cytotoxicity control for B/T-cell NF-kB inhibitor project, dose response (AID 489019).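 Also: IC50 reflects cytotoxicity as loss of cell viability.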 In kind it is functional.
Experiment [17] relates to Jurkat. The experiment can be described thus: blockers of NF-kB activation in T cells – Jurkat, luciferase reporter, luminescence, B- and T-cell, dose response (AID 489004).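 Also: NF-kB luciferase reporter Jurkat cells stimulated with PMA plus ionomycin.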 Type of experiment: functional, cell-based. The conditions noted are these: Homo sapiens. Background: In a reporter assay the amount or activity of a reporter protein is the signal.
Experiment [18] concerns the target T5, Carboxy-terminal domain RNA polymerase II polypeptide A small phosphatase 1 (Homo sapiens, UniProt Q9GZU7).
T5 sequence (Q9GZU7 whole entry): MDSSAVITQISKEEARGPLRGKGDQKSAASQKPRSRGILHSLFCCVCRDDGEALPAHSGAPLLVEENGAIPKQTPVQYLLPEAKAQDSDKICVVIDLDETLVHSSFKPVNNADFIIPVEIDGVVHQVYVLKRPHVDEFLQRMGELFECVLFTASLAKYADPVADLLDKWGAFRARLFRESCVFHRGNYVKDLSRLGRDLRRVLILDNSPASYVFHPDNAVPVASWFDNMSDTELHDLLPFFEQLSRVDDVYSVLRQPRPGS
The experiment can be described thus: CTDSP1 inhibitors, concentration-response, biochemical, absorbance readout, ultra-high-throughput screen actives (AID 540297). Type of experiment: functional.

For experiment [19], the target named is Beta-adrenergic receptor kinase 1 (Homo sapiens, UniProt P25098). The experiment in a line: blockers of aptamer binding to GRK2 – biochemical, flow cytometry beads, FAM-aptamer, powder set 1, dose response (AID 588720).
Beta-adrenergic receptor kinase 1, sequence (P25098 whole entry): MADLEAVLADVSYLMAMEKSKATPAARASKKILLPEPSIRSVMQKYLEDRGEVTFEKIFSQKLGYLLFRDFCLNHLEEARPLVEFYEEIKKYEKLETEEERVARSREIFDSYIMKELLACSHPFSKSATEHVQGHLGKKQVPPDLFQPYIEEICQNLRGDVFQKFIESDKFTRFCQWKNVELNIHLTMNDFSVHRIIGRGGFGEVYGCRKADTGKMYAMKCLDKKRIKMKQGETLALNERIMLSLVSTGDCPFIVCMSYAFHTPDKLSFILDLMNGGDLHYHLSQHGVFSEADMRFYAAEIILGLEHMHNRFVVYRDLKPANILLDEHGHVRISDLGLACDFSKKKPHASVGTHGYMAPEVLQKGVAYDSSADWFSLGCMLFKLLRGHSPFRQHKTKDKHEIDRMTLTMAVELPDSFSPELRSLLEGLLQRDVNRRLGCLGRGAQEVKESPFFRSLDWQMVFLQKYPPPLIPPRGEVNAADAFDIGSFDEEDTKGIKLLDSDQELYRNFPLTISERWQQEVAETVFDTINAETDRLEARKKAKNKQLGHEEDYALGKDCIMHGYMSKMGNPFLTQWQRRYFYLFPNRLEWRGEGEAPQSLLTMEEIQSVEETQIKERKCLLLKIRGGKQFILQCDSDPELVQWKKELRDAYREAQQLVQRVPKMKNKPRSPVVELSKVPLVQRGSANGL
Experiment [20] deals with HEK293. The experiment in a line: SAR Analysis of small molecule inhibitors of B-cell specific antigen receptor-induced NF-kB activation in a HEK-293T cell line using a luminescence assay - Set 2. [Related pubchem assays (depositor defined):AID435022, AID435025, AID489021]. Type of experiment: functional, cell-based. The conditions noted are these: Homo sapiens.
In experiment [21] the test system is Jurkat. The experiment in a line: SAR Analysis of small molecule inhibitors of […] specific antigen receptor-induced NF-kB activation in a Jurkat cell line using a luminescence assay - Set 3. [Related pubchem assays (depositor defined):AID435022, AID435025, AID465]. Type of experiment: functional, cell-based. The conditions noted are these: Homo sapiens.

Experiment [22] is described as follows: HEK-293T cell viability reduction – luminescence, B-cell screen hits, cytotoxicity control for BCR NF-kB inhibitor project, dose response (AID 489021).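 Also: HEK-293T cells carrying an NF-kB luciferase reporter; cells exposed to compound for about 14 hours before viability readout.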 In kind it is functional, cell-based.
Experiment [23] concerns HEK293. The experiment can be described thus: HEK293T cell viability loss, resazurin readout – resazurin fluorescence, cytotoxicity control for NF-kB activator project, SAR follow-up (AID 493251). In kind it is functional, cell-based. The conditions noted are these: Homo sapiens. On the technique in general: Alamar Blue is a resazurin reagent that responds to reducing activity.

A further experiment concerns the target Paired box protein Pax-8 (Homo sapiens, UniProt Q06710). The experiment can be described thus: PAX8 transcriptional activity inhibition in RMG-I – RMG-I cells, luciferase, cherry-pick, dose response (AID 687027).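 Also: luciferase reporter driven by Pax8 target thyroperoxidase promoter measured by SteadyGlo luminescence.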 Type of experiment: functional, cell-based.
Experiment [24] concerns the target T6, Microphthalmia-associated transcription factor (Homo sapiens, UniProt O75030).
T6 sequence (O75030 whole entry): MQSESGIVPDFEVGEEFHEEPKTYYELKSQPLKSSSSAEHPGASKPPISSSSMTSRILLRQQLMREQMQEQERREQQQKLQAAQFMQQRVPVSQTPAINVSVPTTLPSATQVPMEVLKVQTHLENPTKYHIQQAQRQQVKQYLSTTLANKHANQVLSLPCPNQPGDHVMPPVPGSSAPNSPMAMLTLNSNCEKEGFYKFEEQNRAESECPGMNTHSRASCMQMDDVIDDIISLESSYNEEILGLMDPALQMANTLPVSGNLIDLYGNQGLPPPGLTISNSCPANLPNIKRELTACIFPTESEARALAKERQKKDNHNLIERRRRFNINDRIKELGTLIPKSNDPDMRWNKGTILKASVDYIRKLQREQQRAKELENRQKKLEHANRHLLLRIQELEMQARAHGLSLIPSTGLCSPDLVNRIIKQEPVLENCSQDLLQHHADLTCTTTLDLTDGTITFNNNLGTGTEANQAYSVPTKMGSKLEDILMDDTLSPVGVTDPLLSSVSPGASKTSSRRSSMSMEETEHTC
The experiment can be described thus: reducers of TRPM1 reporter luminescence, concentration series – cell-based, SK-MEL-5, cherry-picked, set 3, MITF inhibitor project, dose response (AID 493073).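 Also: SK-MEL-5 melanoma cells with luciferase driven by the MITF target TRPM1 promoter.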 Type of experiment: functional.

The next experiment has as its system A-375. The experiment can be described thus: MITF: Counter assay: A375 proliferation Measured in Cell-Based System Using Plate Reader - 2084-03_Inhibitor_Dose_DryPowder_Activity. [Related pubchem assays (depositor defined):AID488944]. In kind it is functional. The conditions noted are these: Homo sapiens.
A short description of experiment [25]: Luminescent dose response cell-based high throughput screening assay for inhibitors of the Janus kinase 2 mutant JAK2V617F. [Related pubchem assays: 1446 (Primary screen.), 1521 (Confirmation assay.), 1486 (Counter screen.)]. In kind it is functional. (The purpose of a counterscreen is to sort out artefacts and off-target activity.)

DNA dC->dU-editing enzyme APOBEC-3A, sequence (P31941 whole entry): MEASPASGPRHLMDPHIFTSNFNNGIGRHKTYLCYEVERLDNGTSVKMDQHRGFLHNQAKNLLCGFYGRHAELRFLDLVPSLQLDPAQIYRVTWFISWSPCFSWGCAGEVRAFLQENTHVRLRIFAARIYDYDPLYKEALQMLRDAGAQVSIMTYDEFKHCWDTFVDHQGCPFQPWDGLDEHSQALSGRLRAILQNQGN
Paired box protein Pax-8, sequence (Q06710 whole entry): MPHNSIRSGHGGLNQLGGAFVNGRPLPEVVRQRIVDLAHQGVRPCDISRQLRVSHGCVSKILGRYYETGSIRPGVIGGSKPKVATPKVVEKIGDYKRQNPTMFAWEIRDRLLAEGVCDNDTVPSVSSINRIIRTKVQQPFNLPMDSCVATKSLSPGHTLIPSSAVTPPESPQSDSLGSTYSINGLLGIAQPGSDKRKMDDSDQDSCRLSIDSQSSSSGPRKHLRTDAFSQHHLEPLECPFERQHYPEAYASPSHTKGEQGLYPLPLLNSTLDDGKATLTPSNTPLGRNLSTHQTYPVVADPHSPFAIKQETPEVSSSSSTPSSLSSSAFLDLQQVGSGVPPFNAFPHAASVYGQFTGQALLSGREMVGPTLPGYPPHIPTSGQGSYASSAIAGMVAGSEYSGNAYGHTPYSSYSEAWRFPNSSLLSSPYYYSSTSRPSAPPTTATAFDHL

Consider `CN1CCN(C(=O)c2sc(=S)n(-c3ccccc3)c2N)CC1`, for which the IC50 in experiment [1] was 0.26 µM (active); in experiment [2] it was 3.53 µM (active); in experiment [3] it was 0.53 µM (active); in experiment [4], > 80 µM (inactive); in experiment [5] it was 1.14 µM (active) and > 100 µM (inactive) and 7.06 µM (active); in [6] it was 1.27 µM (active). The IC50 in experiment [7] was 191 µM (active); in experiment [8], 5.51 µM (active); in experiment [9] it was > 158 µM (not active); in experiment [10] it was > 99 µM (inactive); in experiment [11], > 100 µM (inactive); in experiment [12], > 100 µM (inactive). For the same molecule, the IC50 in [13] is 1.05 µM (active); in [14], > 99 µM (inactive); in experiment [15], 0.0586 µM (active).

As for `Cn1nc(CC(=O)Nc2ccc3c(c2)CCC3)c2ccccc2c1=O`, the IC50 (in experiment [16]; in the experiment on Jurkat [17]) was > 80 µM (inactive) each time.

`O=C(CCS(=O)(=O)c1ccc(Br)cc1)Nc1ccc(Br)cc1F`: in experiment [18], the IC50 is 22 µM (active). Besides, the EC50 in experiment [19] is 21.2 µM (active).

With `CCCNC(=O)CSCc1nc(-c2ccc(SC)cc2)oc1C`, the IC50 with HEK293 [20] is 42.5 µM (inactive); in the experiment on Jurkat [21] it was > 80 µM (inactive); in [22], > 80 µM (inactive); with HEK293 [23] it was > 80 µM (inactive).

In the case of `Cc1ccc2nc(C)cc(Nc3ccc([N+](=O)[O-])cc3)c2c1`, the AC50 on Paired box protein Pax-8 is 5.33 µM (active); in experiment [24] it was 5.88 µM (active); in the experiment on A-375 it was 24.7 µM (active). Also, in [25], the concentration for half-maximal inhibition (IC50) was 1.29 µM (active).

As a reminder, the IC50 is the concentration that inhibits the measured activity by half. The term EC50 denotes the concentration needed to bring the measured effect to its halfway point. A word on the AC50: it is the concentration at which the activity in the assay is half-maximal.
